Test results published in US5374626A, “5'-alkylphosphonylnucleosides as antivirals” (priority 1989, dated 1994).
Where two headings read alike, the source gives them in different places.

Tested on: Influenza virus
Conditions: mice, ninth day

## NC(=O)c1ncn([C@@H]2O[C@H](CO)[C@@H](O)[C@H]2O)n1 [RIBAVIRIN]
1.6 mg/kg (31 mcg/mouse) I.N., Wilcoxon * p < 0.01, ° p < 0.025
  % PROTECTION (LUNG LESIONS) TEST: 15%
100 mg/kg (2000 mcg/mouse) P.OS, * p < 0.01 Wilcoxon
  % PROTECTION (LUNG LESIONS) TEST: 27%
